Laboratory results as given in PMC11530802, “Evolution, structure, and drug-metabolizing activity of mammalian prenylcysteine oxidases” (The Journal of Biological Chemistry, 2024).

Target: T1, PCYOX1 (mammalian ancestor)
T1 construct: mammalian ancestor's PCYOX1 (26-502), without signal peptide, six histidine N-terminal tag
Assay: microscale thermophoresis; GC-MS detection of farnesal
Format: binding, synthetic construct

With CC(C)=CCC/C(C)=C/CC/C(C)=C/CSc1ccccc1C(=O)O [salirasib] the Kd was 12 ± 0.2 µM.
